Structures can show the parent of a compound that is named as a salt. Where two headings read alike, the source gives them in different places.
What was measured:
[1] = biological target: T1, SARS-CoV-2 PLpro (nsp3 1564–1878) (Severe acute respiratory syndrome coronavirus 2, UniProt P0DTD1); assay: biochemical; parameters: FRET-quenched peptide (Pro3) cleavage by PLpro, 10 min pre-incubation, slope over 20 min, normalised to no-compound control; conditions: low concentration screen, read-out: % of control remaining
[2] = biological target: T1, SARS-CoV-2 PLpro (nsp3 1564–1878); assay: biochemical; parameters: FRET-quenched peptide (Pro3) cleavage by PLpro, 10 min pre-incubation, slope over 20 min, normalised to no-compound control; conditions: high concentration screen, read-out: % of control remaining

Work on `CCCCC/C=C\C\C=C/C=C/C=C/[C@@H](SC[C@H](NC(=O)CC[C@H](N)C(=O)O)C(=O)NCC(=O)O)[C@@H](O)CCCC(=O)O` [Leukotriene C4] yielded a remaining activity at 1.25 µM ([1]; Well no.=4429) of 102% and a remaining activity at 3.75 µM ([2]; Well no.=4429) of 101%.
`CCCCC/C=C\C\C=C/C=C/C=C/[C@@H](SC[C@H](N)C(=O)NCC(=O)O)[C@@H](O)CCCC(=O)O` [Leukotriene D4] was tested, and the remaining activity at 1.25 µM ([1]; Well no.=4431) was 100% and the remaining activity at 3.75 µM ([2]; Well no.=4431) was 98.6%.
`CCCCC/C=C\C\C=C/C=C/C=C/[C@@H](SC[C@H](N)C(=O)O)[C@@H](O)CCCC(=O)O` [Leukotriene E4] showed a remaining activity at 1.25 µM ([1]; Well no.=4433) of 99.2% and a remaining activity at 3.75 µM ([2]; Well no.=4433) of 99.5%.
In the case of `CC(=O)N[C@@H](CC(C)C)C(=O)N[C@@H](CC(C)C)C(=O)N[C@H](C=O)CCCN=C(N)N` [Leupeptin Hemisulfate], the remaining activity at 1.25 µM ([1]; Well no.=8716) is reported as 92% and the remaining activity at 3.75 µM ([2]; Well no.=8716) is reported as 91%.
`CCNC(=O)[C@@H]1CCCN1C(=O)[C@H](CCCNC(=N)N)NC(=O)[C@H](CC(C)C)NC(=O)[C@@H](CC(C)C)NC(=O)[C@H](Cc1ccc(O)cc1)NC(=O)[C@H](CO)NC(=O)[C@H](Cc1c[nH]c2ccccc12)NC(=O)[C@H](Cc1c[nH]cn1)NC(=O)[C@@H]1CCC(=O)N1` [Leuprolide (Acetate)] was tested, and the remaining activity at 1.25 µM ([1]; Well no.=6469) was 104% and the remaining activity at 3.75 µM ([2]; Well no.=6469) was 104%.
For `C=CCN1CC[C@]23CCCC[C@H]2[C@H]1Cc1ccc(O)cc13` [Levallorphan tartrate], the remaining activity at 1.25 µM ([1]; Well no.=1012) was 99.1% and the remaining activity at 3.75 µM ([2]; Well no.=1012) was 99.9%.
`C=CCN1CC[C@]23CCCC[C@H]2[C@H]1Cc1ccc(O)cc13` [Levallorphan] showed a remaining activity at 1.25 µM ([1]; Well no.=1702) of 106% and a remaining activity at 3.75 µM ([2]; Well no.=1702) of 103%.
With `c1ccc([C@H]2CN3CCSC3=N2)cc1` [Levamisole] the remaining activity at 1.25 µM ([1]; Well no.=2260) was 97.8% and the remaining activity at 3.75 µM ([2]; Well no.=2260) was 94.2%.
Work on `CC[C@@H](C(N)=O)N1CCCC1=O` [Levetiracetam] yielded a remaining activity at 1.25 µM ([1]; Well no.=1820) of 96.8% and a remaining activity at 3.75 µM ([2]; Well no.=1820) of 94.4%.
With `CC(C)NC[C@H](O)COc1ccc(CCOCC2CC2)cc1` [Levobetaxolol (hydrochloride)] the remaining activity at 1.25 µM ([1]; Well no.=6429) was 91.4% and the remaining activity at 3.75 µM ([2]; Well no.=6429) was 90.9%.
Work on `CCCCN1CCCC[C@H]1C(=O)Nc1c(C)cccc1C` [Levobupivacaine hydrochloride] yielded a remaining activity at 1.25 µM ([1]; Well no.=6043) of 98.8% and a remaining activity at 3.75 µM ([2]; Well no.=6043) of 105%.
`C[C@@H]1CN([C@H]2CC[C@](C#N)(c3ccc(F)cc3)CC2)CC[C@]1(C(=O)O)c1ccccc1` [Levocabastine.HCl] was tested, and the remaining activity at 1.25 µM ([1]; Well no.=2058) was 97.6% and the remaining activity at 3.75 µM ([2]; Well no.=2058) was 99.2%.
With `N[C@@H](Cc1ccc(O)c(O)c1)C(=O)O` [Levodopa] the remaining activity at 1.25 µM ([1]; Well no.=2264) was 93.8% and the remaining activity at 3.75 µM ([2]; Well no.=2264) was 95.2%.
With `OC[C@@H](O)CN1CCN(c2ccccc2)CC1` [Levodropropizine] the remaining activity at 1.25 µM ([1]; Well no.=6189) was 97.3% and the remaining activity at 3.75 µM ([2]; Well no.=6189) was 82.2%.
Work on `C[C@H]1COc2c(N3CCN(C)CC3)c(F)cc3c(=O)c(C(=O)O)cn1c23` [Levofloxacin] yielded a remaining activity at 1.25 µM ([1]; Well no.=2266) of 97.9% and a remaining activity at 3.75 µM ([2]; Well no.=2266) of 98.5%.
`CN1c2c([nH]c(N)nc2=O)NC[C@@H]1CNc1ccc(C(=O)N[C@@H](CCC(=O)O)C(=O)O)cc1` [Levomefolic acid] was tested, and the remaining activity at 1.25 µM ([1]; Well no.=7940) was 101% and the remaining activity at 3.75 µM ([2]; Well no.=7940) was 101%.
Work on `C#C[C@]1(O)CC[C@H]2[C@@H]3CCC4=CC(=O)CC[C@@H]4[C@H]3CC[C@@]21CC` [Levonorgestrel] yielded a remaining activity at 1.25 µM ([1]; Well no.=2262) of 93.9% and a remaining activity at 3.75 µM ([2]; Well no.=2262) of 102%.
Molecule `C[C@@H]1CC(=O)NN=C1c1ccc(NN=C(C#N)C#N)cc1` [Levosimendan] has a remaining activity at 1.25 µM ([1]; Well no.=4902) of 101% and a remaining activity at 3.75 µM ([2]; Well no.=4902) of 97.8%.
Molecule `CCN1CCC[C@H]1CNC(=O)c1cc(S(N)(=O)=O)ccc1OC` [Levosulpiride] has a remaining activity at 1.25 µM ([1]; Well no.=6851) of 98% and a remaining activity at 3.75 µM ([2]; Well no.=6851) of 88.1%.
In the case of `CC(=O)CCC(=O)O` [Levulinic acid], the remaining activity at 1.25 µM ([1]; Well no.=6545) is reported as 101% and the remaining activity at 3.75 µM ([2]; Well no.=6545) is reported as 98%.
`CCN(CC)CC(=O)Nc1c(C)cccc1C` [Lidocaine hydrochloride] showed a remaining activity at 1.25 µM ([1]; Well no.=883) of 104% and a remaining activity at 3.75 µM ([2]; Well no.=883) of 108%.
In the case of `OCc1ccc(-c2nn(Cc3ccccc3)c3ccccc23)o1` [Lificiguat], the remaining activity at 1.25 µM ([1]; Well no.=7713) is reported as 99% and the remaining activity at 3.75 µM ([2]; Well no.=7713) is reported as 82.8%.
With `CS(=O)(=O)c1cccc(C[C@H](NC(=O)c2c(Cl)cc3c(c2Cl)CCN(C(=O)c2ccc4ccoc4c2)C3)C(=O)O)c1` [Lifitegrast] the remaining activity at 1.25 µM ([1]; Well no.=8038) was 94.5% and the remaining activity at 3.75 µM ([2]; Well no.=8038) was 95.3%.
`CC1(C)O[C@H]2CC(=O)OC[C@]23[C@H]2CC[C@@]4(C)[C@H](c5ccoc5)OC(=O)[C@H]5O[C@]54[C@]2(C)C(=O)C[C@@H]13` [Limonin] gave a remaining activity at 1.25 µM ([1]; Well no.=3655) of 99.2% and a remaining activity at 3.75 µM ([2]; Well no.=3655) of 102%.
With `CC#CCn1c(N2CCC[C@@H](N)C2)nc2c1c(=O)n(Cc1nc(C)c3ccccc3n1)c(=O)n2C` [Linagliptin (BI-1356)] the remaining activity at 1.25 µM ([1]; Well no.=4883) was 97% and the remaining activity at 3.75 µM ([2]; Well no.=4883) was 93.9%.
`CCC[C@@H]1C[C@@H](C(=O)N[C@@H]([C@H]2O[C@H](SC)[C@H](O)[C@@H](O)[C@H]2O)[C@@H](C)O)N(C)C1` [Lincomycin] showed a remaining activity at 1.25 µM ([1]; Well no.=1549) of 102%, a remaining activity at 1.25 µM ([1]; Well no.=3377) of 96.3% and a remaining activity at 3.75 µM ([2]; Well no.=1549) of 105%. It also gave a remaining activity at 3.75 µM ([2]; Well no.=3377) of 96.8%.
In the case of `CC(=O)NC[C@H]1CN(c2ccc(N3CCOCC3)c(F)c2)C(=O)O1` [Linezolid], the remaining activity at 1.25 µM ([1]; Well no.=1782) is reported as 102% and the remaining activity at 3.75 µM ([2]; Well no.=1782) is reported as 98.8%.
For `CCCCC/C=C\C/C=C\CCCCCCCC(N)=O` [Linoleamide], the remaining activity at 1.25 µM ([1]; Well no.=4338) was 101% and the remaining activity at 3.75 µM ([2]; Well no.=4338) was 92.5%.
With `CCCCC/C=C\C/C=C\CCCCCCCC(=O)O` [Linoleic acid] the remaining activity at 1.25 µM ([1]; Well no.=4349) was 103%, the remaining activity at 1.25 µM ([1]; Well no.=7029) was 94.8% and the remaining activity at 3.75 µM ([2]; Well no.=4349) was 101%. For the same molecule, the remaining activity at 3.75 µM ([2]; Well no.=7029) was 85.7%.
`CC/C=C\C/C=C\C/C=C\CCCCCCCC(=O)O` [Linolenic acid] gave a remaining activity at 1.25 µM ([1]; Well no.=4305) of 103%, a remaining activity at 1.25 µM ([1]; Well no.=4358) of 101% and a remaining activity at 3.75 µM ([2]; Well no.=4305) of 102%. It also gave a remaining activity at 3.75 µM ([2]; Well no.=4358) of 100%.
Molecule `O=C1N(c2ccccc2)c2ccccc2C1(Cc1ccncc1)Cc1ccncc1` [Linopirdine] has a remaining activity at 1.25 µM ([1]; Well no.=822) of 104% and a remaining activity at 3.75 µM ([2]; Well no.=822) of 105%.
For `C[C@@H](C(=O)Nc1ccc(Cl)cc1)[C@H]1CC[C@@H](c2ccnc3ccc(F)cc32)CC1` [Linrodostat], the remaining activity at 1.25 µM ([1]; Well no.=8267) was 97.9% and the remaining activity at 3.75 µM ([2]; Well no.=8267) was 99.1%.
In the case of `O=C(O)CCCC[C@@H]1CCSS1` [Lipoic acid], the remaining activity at 1.25 µM ([1]; Well no.=6915) is reported as 105% and the remaining activity at 3.75 µM ([2]; Well no.=6915) is reported as 104%.

Source: publication PMC8286840, “Identifying SARS-CoV-2 antiviral compounds by screening for small molecule inhibitors of Nsp3 papain-like protease” (Biochemical Journal, 2021)
